According to EPA's ToxRefDB 2:

Legend:
rabbit = settings: Sub-acute dermal toxicity, new zealand white, Topical, dose end: 21 day, group: systemic, systemic / pathology gross / skin / scabbing + systemic / pathology microscopic / skin / acanthosis + systemic / pathology microscopic / …
rat [1] = settings: Prenatal developmental toxicity study, sprague dawley, Oral, Gavage/Intubation, dose end: 15 GD
rat [2] = settings: Combined chronic toxicity/carcinogenicity, fischer, Oral, Gavage/Intubation, dose end: 103 week, group: systemic
mouse [3] = settings: Sub-acute repeat dose toxicity, b6c3f1, Oral, Gavage/Intubation, dose end: 16 day, group: systemic
mouse [4] = settings: Carcinogenicity; b6c3f1; Oral; Gavage; dose end: 103 week; group: systemic; systemic / organ weight / kidney / absolute + systemic / pathology microscopic / kidney / nephropathy + systemic / pathology microscopic / …
rat [5] = settings: Subchronic oral toxicity in rodents, fischer, Gavage/Intubation, dose end: 13 week, group: systemic
rat [6] = settings: Sub-acute repeat dose toxicity, fischer, Oral, Gavage/Intubation, dose end: 16 day, group: systemic
rat [7] = settings: Prenatal developmental toxicity study, wistar, Oral, Gavage/Intubation, dose end: 15 GD
rat [8] = settings: Subchronic oral toxicity in rodents, fischer, Gavage/Intubation, dose end: 13 week, group: systemic; remark: listed apart in the source
rat [9] = settings: Carcinogenicity; Osborne-Mendel; Oral; Feed; dose end: 80 week; group: systemic; systemic / in life observation / clinical signs / [other] + systemic / in life observation / clinical signs / alopecia + systemic / in life …
rat [10] = settings: Prenatal developmental toxicity study; sprague dawley; Oral; Gavage/Intubation; dose end: 20 GD; group: maternal; systemic / in life observation / body weight / body weight gain
mouse [11] = settings: Carcinogenicity; b6c3f1; Oral; Feed; dose end: 80 week; group: systemic; systemic / in life observation / clinical signs / aggressive behavior + systemic / in life observation / clinical signs / alopecia + …
hamster = settings: Developmental neurotoxicity study; golden syrian; Oral; Gavage/Intubation; dose end: 125 PND; group: cannot be grouped; systemic / in life observation / mortality / mortality
mouse [12] = settings: Prenatal developmental toxicity study, cd1, Oral, Gavage/Intubation, dose end: 17 GD
mouse [13] = settings: Multigenerational reproductive toxicity study, other, Oral, Feed, dose end: 1 generation
[14] = group: developmental, developmental / developmental malformation / general / runts + systemic / in life observation / body weight / fetal weight
[15] = group: maternal, systemic / in life observation / body weight / body weight + systemic / in life observation / body weight / body weight gain + systemic / in…
[16] = systemic / pathology microscopic / kidney / nephropathy + systemic / urinalysis / coporphoryin / coporphoryin
[17] = systemic / in life observation / clinical signs / abnormal posture + systemic / in life observation / clinical signs / fur (altered …
[18] = systemic / pathology gross / intestine large / dilatation
[19] = systemic / in life observation / clinical signs / alopecia + systemic / in life observation / clinical signs / urogenital staining
[20] = systemic / organ weight / kidney / absolute + systemic / organ weight / kidney / relative to body weight + systemic / pathology microscopic…
[21] = group: developmental, systemic / in life observation / body weight / fetal weight
[22] = group: maternal, systemic / in life observation / body weight / body weight gain
[23] = group: maternal, systemic / in life observation / body weight / body weight gain + systemic / in life observation / clinical signs / mucoid stools + systemic…
[24] = systemic / clinical chemistry / creatinine / creatinine + systemic / clinical chemistry / urea nitrogen / urea nitrogen + systemic / organ …
[25] = systemic / clinical chemistry / creatinine / creatinine + systemic / clinical chemistry / urea nitrogen / urea nitrogen + systemic / …
[26] = group: developmental, developmental / developmental malformation / bone / absent + developmental / developmental malformation / bone / ossification sites + …
[27] = group: maternal, systemic / in life observation / body weight / body weight gain + systemic / in life observation / mortality / mortality + systemic / organ …
[28] = group: maternal, systemic / organ weight / liver / relative to body weight
[29] = group: parental, systemic / in life observation / mortality / mortality
[30] = group: reproductive, reproductive / reproductive performance / mating / mating + reproductive / offspring survival early / litter size / litter size

In the case of `Oc1ccc(Cl)cc1Cc1ccccc1` [Clorophene], the LEL (rabbit) is reported as 5 mg/kg/day, the LOAEL (rabbit) is reported as 5 mg/kg/day and the NEL (rabbit) is reported as 1 mg/kg/day. The NOAEL (rabbit) was 1 mg/kg/day, the LEL (rat [1]; [14]) was 1000 mg/kg/day and the LOAEL (rat [1]; [14]) was greater than 1000 mg/kg/day. The NEL (rat [1]; [14]) was 300 mg/kg/day, the NOAEL (rat [1]; [14]) was no less than 1000 mg/kg/day and the LOAEL (rat [1]; [15]) was greater than 1000 mg/kg/day. The NEL (rat [1]; [15]) was 100 mg/kg/day, the NOAEL (rat [1]; [15]) was no less than 1000 mg/kg/day and the LEL (rat [1]; group: maternal, systemic / in life observation / body weight / body weight + systemic / in life observation / water consumption / water consumption) was 300 mg/kg/day. For the same molecule, the NEL (rat [2]; systemic / in life observation / clinical signs / urogenital staining + systemic / organ weight / heart / absolute + systemic / organ weight…) was 240 mg/kg/day, the LOAEL (rat [2]; [16]) was 30 mg/kg/day and the NOAEL (rat [2]; [16]) was less than 30 mg/kg/day. For the same molecule, the LOAEL (mouse [3]; [17]) was greater than 1000 mg/kg/day, the NEL (mouse [3]; [17]) was 62.5 mg/kg/day and the NOAEL (mouse [3]; [17]) was no less than 1000 mg/kg/day. The LEL (mouse [3]; [18]) was 125 mg/kg/day, the LEL (mouse [4]) was 120 mg/kg/day and the LOAEL (mouse [4]) was 120 mg/kg/day. For the same molecule, the NEL (mouse [4]) was less than 120 mg/kg/day, the NOAEL (mouse [4]) was less than 120 mg/kg/day and the LEL (rat [5]; [19]) was 30 mg/kg/day. The NEL (rat [5]; [19]) was less than 30 mg/kg/day, the LOAEL (rat [5]; [20]) was 480 mg/kg/day and the NOAEL (rat [5]; [20]) was 240 mg/kg/day. It also gave an LOAEL (rat [6]; [20]) of 1000 mg/kg/day, an NOAEL (rat [6]; [20]) of 500 mg/kg/day and an LEL (rat [6]; [18]) of 62.5 mg/kg/day. It also gave an NEL (rat [6]; [18]) of less than 62.5 mg/kg/day, an LEL (rat [7]; [21]) of 375 mg/kg/day and an LOAEL (rat [7]; [21]) of 375 mg/kg/day. It also gave an NEL (rat [7]; [21]) of 75 mg/kg/day, an NOAEL (rat [7]; [21]) of 75 mg/kg/day and an LEL (rat [7]; [22]) of 75 mg/kg/day. For the same molecule, the LOAEL (rat [7]; [22]) was 75 mg/kg/day, the NEL (rat [7]; [23]) was 15 mg/kg/day and the NOAEL (rat [7]; [23]) was 15 mg/kg/day. It also gave an LOAEL (rat [8]; [24]) of 240 mg/kg/day, an NOAEL (rat [8]; [24]) of 120 mg/kg/day and an LEL (rat [8]; [25]) of 30 mg/kg/day. The NEL (rat [8]; [25]) was less than 30 mg/kg/day.

With `ClC1=C(Cl)[C@]2(Cl)[C@@H]3[C@H]4C[C@H]([C@@H]5O[C@H]45)[C@@H]3[C@@]1(Cl)C2(Cl)Cl` [Endrin] the LEL (rat [9]) was 0.125 mg/kg/day, the LOAEL (rat [9]) was greater than 0.25 mg/kg/day and the NEL (rat [9]) was less than 0.125 mg/kg/day. It also gave an NOAEL (rat [9]) of no less than 0.25 mg/kg/day, an LEL (rat [10]) of 0.3 mg/kg/day and an LOAEL (rat [10]) greater than 0.45 mg/kg/day. The NEL (rat [10]) was 0.15 mg/kg/day, the NOAEL (rat [10]) was no less than 0.45 mg/kg/day and the LEL (mouse [11]) was 0.24 mg/kg/day. The LOAEL (mouse [11]) was greater than 0.48 mg/kg/day, the NEL (mouse [11]) was less than 0.24 mg/kg/day and the NOAEL (mouse [11]) was no less than 0.48 mg/kg/day. For the same molecule, the LEL (hamster) was 1.5 mg/kg/day, the LOAEL (hamster) was greater than 1.5 mg/kg/day and the NOAEL (hamster) was no less than 1.5 mg/kg/day. The LEL (mouse [12]; [26]) was 1 mg/kg/day, the LOAEL (mouse [12]; [26]) was greater than 2 mg/kg/day and the NEL (mouse [12]; [26]) was 0.5 mg/kg/day. The NOAEL (mouse [12]; [26]) was no less than 2 mg/kg/day, the LOAEL (mouse [12]; [27]) was greater than 2 mg/kg/day and the NOAEL (mouse [12]; [27]) was no less than 2 mg/kg/day. The LEL (mouse [12]; [28]) was 0.5 mg/kg/day, the NEL (mouse [12]; [28]) was less than 0.5 mg/kg/day and the LEL (mouse [13]; [29]) was 0.75 mg/kg/day. The LOAEL (mouse [13]; [29]) was greater than 0.75 mg/kg/day, the NEL (mouse [13]; [29]) was less than 0.75 mg/kg/day and the NOAEL (mouse [13]; [29]) was no less than 0.75 mg/kg/day. It also gave an LEL (mouse [13]; [30]) of 0.75 mg/kg/day, an LOAEL (mouse [13]; [30]) greater than 0.75 mg/kg/day and an NEL (mouse [13]; [30]) of less than 0.75 mg/kg/day. For the same molecule, the NOAEL (mouse [13]; [30]) was no less than 0.75 mg/kg/day.
